Literature values as cited in US20160184212A1, “PHOTO-ACTIVATED HYDROGELS” (L'Oreal, priority 2014, published 2016).

In the case of `O=C1c2ccccc2C(=O)c2cc(S(=O)(=O)[O-])ccc21.[Na+]` [anthraquinone-2-sulfonic acid sodium salt], the water solubility is given as “water soluble”.
